Measurements taken from the NIST ThermoML archive (doi:10.1016/j.tca.2005.06.043).
Numbers after ± are expanded uncertainties.

Tests used:
[1] = Calculated from knudsen effusion weight loss
[2] = molar enthalpy of vaporization or sublimation; conditions: 303 K; Crystal 2; Static calorimetry

Row | vapor or sublimation pressure ([1]; 318.02 K, Crystal) | vapor or sublimation pressure ([1]; 322.7 K, Crystal) | vapor or sublimation pressure ([1]; 322.99 K, Crystal) | vapor or sublimation pressure ([1]; 327.9 K, Crystal) | vapor or sublimation pressure ([1]; 332.6 K, Crystal) | vapor or sublimation pressure ([1]; 288.36 K, Crystal 2) | vapor or sublimation pressure ([1]; 293.31 K, Crystal 2) | vapor or sublimation pressure ([1]; 298.28 K, Crystal 2) | vapor or sublimation pressure ([1]; 303.22 K, Crystal 2) | vapor or sublimation pressure ([1]; 308.19 K, Crystal 2) | vapor or sublimation pressure ([1]; 313.16 K, Crystal 1) | vapor or sublimation pressure ([1]; 314.21 K, Crystal 1) | vapor or sublimation pressure ([1]; 314.65 K, Crystal 1) | vapor or sublimation pressure ([1]; 315.63 K, Crystal 1) | vapor or sublimation pressure ([1]; 316.65 K, Crystal 1) | vapor or sublimation pressure ([1]; 318.12 K, Crystal 1) | vapor or sublimation pressure ([1]; 320.59 K, Crystal 1) | vapor or sublimation pressure ([1]; 323.03 K, Crystal 1) | molar enthalpy [2] | Structure (SMILES)
1 | 0.001022 ± 8.9e-05 kPa | 0.001693 ± 0.00016 kPa | 0.001744 ± 0.00016 kPa | 0.00289 ± 0.00029 kPa | 0.004567 ± 0.00049 kPa |  |  |  |  |  |  |  |  |  |  |  |  |  |  | O=C(O)c1ccccc1 [benzoic acid]
2 |  |  |  |  |  | 0.001603 ± 0.00015 kPa | 0.002687 ± 0.00027 kPa | 0.004279 ± 0.00045 kPa | 0.006896 ± 0.00077 kPa | 0.0111 ± 0.0013 kPa | 0.0169 ± 0.0021 kPa | 0.01766 ± 0.0022 kPa | 0.01847 ± 0.0023 kPa | 0.01952 ± 0.0025 kPa | 0.0215 ± 0.0028 kPa | 0.02411 ± 0.0032 kPa | 0.02925 ± 0.0039 kPa | 0.03472 ± 0.0048 kPa | 17.15 ± 0.151 kcal/mol | BrC12CC3CC(CC(C3)C1)C2 [1-bromotricyclo[3.3.1.1(3,7)]decane]
